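Compound exposure: 48 hours, 5 concentrations, 96-well plates. Here, GI50 denotes the concentration required for 50% inhibition of growth.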 Activity calls are given as the source filed them. Rule as the data show it: active = GI50 up to about 1.1 µM and inactive = higher.
Columns and labels:
Test in all cases: NCI tumour cell line growth inhibition, 48 h
MDA-MB-435 = test system: MDA-MB-435
PC-3 = test system: PC-3
SNB-19 = test system: SNB-19
HCC 2998 = test system: HCC 2998
SK-MEL-2 = test system: SK-MEL-2
COLO 205 = test system: COLO 205
NCI-H23 = test system: NCI-H23
KM12 = test system: KM12
RXF 393 = test system: RXF 393
Malme-3M = test system: Malme-3M
SK-MEL-28 = test system: SK-MEL-28
UACC-62 = test system: UACC-62
HCT-15 = test system: HCT-15
HT-29 = test system: HT-29
UACC-257 = test system: UACC-257
UO-31 = test system: UO-31
SW-620 = test system: SW-620
ACHN = test system: ACHN
HL-60 = test system: HL-60
MOLT-4 = test system: MOLT-4

SMILES | GI50 (MDA-MB-435) | GI50 (PC-3) | GI50 (SNB-19) | GI50 (HCC 2998) | GI50 (SK-MEL-2) | GI50 (COLO 205) | GI50 (NCI-H23) | GI50 (KM12) | GI50 (RXF 393) | GI50 (Malme-3M) | GI50 (SK-MEL-28) | GI50 (UACC-62) | GI50 (HCT-15) [µM] | GI50 (HT-29) | GI50 (UACC-257) | GI50 (UO-31) | GI50 (SW-620) | GI50 (ACHN) | GI50 (HL-60) | GI50 (MOLT-4)
CNC(=O)c1ccc(C(=O)NCCCCCN(O)C(=O)CCC(=O)NCCCCCN(O)C(=O)CCC(=O)NCCCCCN(O)C(C)=O)c(O)c1O | > 100 µM (inactive) | 86.7 µM (inactive) | 62.7 µM (inactive) | > 100 µM (inactive) | 95.7 µM (inactive) | 27.1 µM (inactive) | 65.9 µM (inactive) | 58.5 µM (inactive) | 32.3 µM (inactive) | 90.8 µM (inactive) | 42 µM (inactive) | 36.1 µM (inactive) | 21.9 | 38.9 µM (inactive) | 68.5 µM (inactive) | 24.3 µM (inactive) | 39.3 µM (inactive) | 32.8 µM (inactive) | 23.8 µM (inactive) | 
CC1(C)[C@@H]2CC[C@]1(C)[C@H](OC(=O)/C=C/c1ccccc1)C2 | 26 µM (inactive) | 23.4 µM (inactive) | 19.8 µM (inactive) | 17 µM (inactive) | 17.4 µM (inactive) | 17.1 µM (inactive) | 21.7 µM (inactive) | 20.8 µM (inactive) | 16.9 µM (inactive) | 17.3 µM (inactive) | 19 µM (inactive) | 21.2 µM (inactive) | 17.6 | 16.6 µM (inactive) | 23.8 µM (inactive) | 19.2 µM (inactive) | 15.5 µM (inactive) | 18 µM (inactive) | 18.4 µM (inactive) | 
Cc1ccc([N+](=O)[O-])cc1S(=O)(=O)Nc1ccc(C2=NN(S(=O)(=O)c3cc([N+](=O)[O-])ccc3C)C(c3cccs3)C2)cc1 (centres undefined) | 50 µM (inactive) | 30 µM (inactive) | 45.2 µM (inactive) | 22.9 µM (inactive) | 25.3 µM (inactive) | 9.59 µM (inactive) | 21.8 µM (inactive) | 30.1 µM (inactive) | 56.5 µM (inactive) | 47.9 µM (inactive) | 65.8 µM (inactive) | 15.8 µM (inactive) | 33.2 | 38.4 µM (inactive) | 31.5 µM (inactive) | 34.5 µM (inactive) | 49.7 µM (inactive) | 32.4 µM (inactive) | 32.9 µM (inactive) | 22.4 µM (inactive)
O=C(NC(=O)c1ccccc1[N+](=O)[O-])Nc1ccc(Oc2ncc(Br)cn2)c(Cl)c1 | 0.00802 µM (active) | 0.029 µM (active) | 0.0278 µM (active) | 0.0875 µM (active) | 0.0213 µM (active) | 0.046 µM (active) | 0.0389 µM (active) | 0.023 µM (active) | 0.00771 µM (active) | 0.0138 µM (active) | 0.0286 µM (active) | 0.019 µM (active) | 0.0441 | 0.0175 µM (active) | 0.0237 µM (active) | 0.0281 µM (active) | 0.0237 µM (active) | 0.0508 µM (active) | 0.00383 µM (active) | 0.033 µM (active)
N#CCCN(CCCN(CCCN(C(=O)Nc1ccccc1)c1ccccc1)C(=O)Nc1ccccc1)C(=O)Nc1ccccc1 | > 8.75 µM (inactive) | > 8.75 µM (inactive) | > 8.75 µM (inactive) | > 100 µM (inactive) | > 8.75 µM (inactive) | > 8.75 µM (inactive) |  | > 8.75 µM (inactive) | > 8.75 µM (inactive) | > 8.75 µM (inactive) | > 8.75 µM (inactive) | > 8.75 µM (inactive) | > 100 | > 8.75 µM (inactive) | > 8.75 µM (inactive) | > 8.75 µM (inactive) | > 8.75 µM (inactive) | > 8.75 µM (inactive) | > 8.75 µM (inactive) | > 8.75 µM (inactive)
O=C(/C=C/c1ccc(OCc2cccc(Cl)c2)cc1)NO | 18.5 µM (inactive) | 12.6 µM (inactive) | 18 µM (inactive) | 14.2 µM (inactive) | 18 µM (inactive) | 14 µM (inactive) | 11.2 µM (inactive) | 16.5 µM (inactive) | 15.5 µM (inactive) |  | 26.2 µM (inactive) | 13.1 µM (inactive) | 5.05 | 13.6 µM (inactive) | 38 µM (inactive) | 4.78 µM (inactive) | 10.1 µM (inactive) | 11.3 µM (inactive) | 11.1 µM (inactive) | 2.67 µM (inactive)
O=C1Nc2ccccc2/C1=C\c1c(Cl)[nH]c2ccccc12 | 0.208 µM (active) | 0.649 µM (active) | 0.764 µM (active) | 0.416 µM (active) | 1.11 µM (active) | 0.288 µM (active) | 2.45 µM (inactive) | 0.397 µM (active) | 0.869 µM (active) | 0.631 µM (active) | 0.299 µM (active) | 1.05 µM (active) | 0.608 | 0.222 µM (active) | 1.59 µM (inactive) | 1.66 µM (inactive) | 0.516 µM (active) | 1.3 µM (inactive) | 0.251 µM (active) | 0.522 µM (active)
CCNC(=O)c1c(O)nc2ccccc2c1O | 59.7 µM (inactive) | 49.9 µM (inactive) | 83.9 µM (inactive) | > 100 µM (inactive) |  | 56.9 µM (inactive) | > 100 µM (inactive) | 97.7 µM (inactive) | 22.1 µM (inactive) | > 100 µM (inactive) | > 100 µM (inactive) |  | 29 | 46.2 µM (inactive) | > 100 µM (inactive) | 73.5 µM (inactive) | 43.1 µM (inactive) | 40.5 µM (inactive) | 35.6 µM (inactive) | 42 µM (inactive)
COc1ccc(N[C@H]([C@@H](c2ccccc2)[S+]([O-])c2ccc(C)cc2)C(F)(F)F)cc1 (some centres undefined) | 41.1 µM (inactive) | 21.1 µM (inactive) | 33.1 µM (inactive) | > 100 µM (inactive) | 40 µM (inactive) | 37.2 µM (inactive) | 41.5 µM (inactive) | 33.4 µM (inactive) | 53.5 µM (inactive) | 75.2 µM (inactive) | > 100 µM (inactive) | 29.1 µM (inactive) | 30 | 31.8 µM (inactive) | > 100 µM (inactive) | 59.8 µM (inactive) | 61.1 µM (inactive) | 35 µM (inactive) | 19.1 µM (inactive) | 34.9 µM (inactive)
COC12COC(=O)C1C(c1ccc3c(c1)OCO3)c1cc3c(cc1O2)OCO3 (centres undefined) | 2.72 µM (inactive) | 12.6 µM (inactive) | 54.1 µM (inactive) | 15.6 µM (inactive) | 17.6 µM (inactive) | 9.42 µM (inactive) | 35.6 µM (inactive) | 7.91 µM (inactive) | 10.3 µM (inactive) | 40.7 µM (inactive) | 32.8 µM (inactive) | 15.8 µM (inactive) | 7.08 | 6.44 µM (inactive) | 27.9 µM (inactive) | 28.4 µM (inactive) | 8.49 µM (inactive) | 29.1 µM (inactive) | 5.28 µM (inactive) | 7.11 µM (inactive)
CCCCCCCC(=O)N1C2CC3CCC2(CS1(=O)=O)C3(C)C (centres undefined) | 31.4 µM (inactive) | 23.7 µM (inactive) | 26 µM (inactive) | 24.7 µM (inactive) |  | 21.8 µM (inactive) | 33.3 µM (inactive) | 26.2 µM (inactive) | 13.3 µM (inactive) | 16.7 µM (inactive) | 14.4 µM (inactive) | 22.8 µM (inactive) | 13.1 | > 10 µM (inactive) | 24.5 µM (inactive) | 22.6 µM (inactive) | 23.3 µM (inactive) | 42.1 µM (inactive) | 20 µM (inactive) | 17.3 µM (inactive)
CCOC(=O)c1ccc(C(=O)/C(C(C)=O)=C2\CCCN2C)n1C | > 100 µM (inactive) | > 100 µM (inactive) | 73.3 µM (inactive) | > 100 µM (inactive) | > 100 µM (inactive) | > 100 µM (inactive) | 90.6 µM (inactive) | 29.1 µM (inactive) | 29.5 µM (inactive) | > 100 µM (inactive) | > 100 µM (inactive) | 49.1 µM (inactive) | 68.7 |  | > 100 µM (inactive) | > 100 µM (inactive) | 69.7 µM (inactive) | > 100 µM (inactive) | 18.5 µM (inactive) | 23.1 µM (inactive)
Cn1c(-c2ccc[se]2)ccc1-c1ccc(CO)[se]1 | 17.3 µM (inactive) | 42.5 µM (inactive) | > 46.5 µM (inactive) | 0.792 µM (active) | 34.7 µM (inactive) | 0.367 µM (active) | 24.9 µM (inactive) | 32.1 µM (inactive) | 0.239 µM (active) | 10.2 µM (inactive) | 52.8 µM (inactive) | 0.045 µM (active) | 18.3 |  | 0.0461 µM (active) | 36.3 µM (inactive) | 0.133 µM (active) | 23.2 µM (inactive) | 10 µM (inactive) | 21.1 µM (inactive)
O=[N+]([O-])c1cc(C(F)(F)F)ccc1S(=O)(=O)N[C@@H]1CCCC[C@H]1NS(=O)(=O)c1ccc(C(F)(F)F)cc1[N+](=O)[O-] | 2.15 µM (inactive) | 3.11 µM (inactive) | 5.68 µM (inactive) | 4.28 µM (inactive) | 2.82 µM (inactive) | 2.78 µM (inactive) | 2.28 µM (inactive) | 3.08 µM (inactive) | 2.45 µM (inactive) | 2.49 µM (inactive) | 5.55 µM (inactive) | 3.81 µM (inactive) | 2.69 | 3.37 µM (inactive) | 8.07 µM (inactive) | 3.56 µM (inactive) | 3.78 µM (inactive) | 2.7 µM (inactive) | 1.39 µM (inactive) | 
O=C(O)c1ccc(Cc2ccccc2C(=O)O)cc1 | > 100 µM (inactive) | > 100 µM (inactive) | > 100 µM (inactive) | > 100 µM (inactive) | > 100 µM (inactive) | > 100 µM (inactive) | > 100 µM (inactive) | > 100 µM (inactive) | > 100 µM (inactive) | > 100 µM (inactive) | > 100 µM (inactive) | > 100 µM (inactive) | > 100 | > 100 µM (inactive) | > 100 µM (inactive) | > 100 µM (inactive) | > 100 µM (inactive) | > 100 µM (inactive) | > 100 µM (inactive) | 
